How the values were obtained:
[1] = target: T1, human CaV3.1 (Homo sapiens, UniProt O43497); assay: T-type calcium channel window current FLIPR assay, CaV3.1; type: cell-based; details: for IC50: FLIPR window current assay, transiently transfected HEK293T, N = 3, mean ± SEM, read-out: IC50 CaV3.1 (LVA CaVs)
T1 construct: expressed in transfected cells; host or cells: HEK 293T, transient transfection (FuGENE HD)
Experimental: (§1) The human embryonic kidney 293 (HEK 293) cell lines (from Emmanuel Bourinet, Montpellier, France) stably expressing CaV3.2 or CaV3.3 were cultured under 5% carbon dioxide at 37 °C in Dulbecco’s Modified Eagle Medium (DMEM) Glutamax (Gibco, Life Technologies, Carlsbad, CA, USA) supplemented with 10% (v/v) fetal bovine serum (FBS), 100 U/mL penicillin, 100 μg/mL streptomycin (Gibco, Life Technologies), and 750 μg/mL geneticin (G418) (Gibco, Life Technologies). The Chinese Hamster Ovary (CHO) cell lines (Emmanuel Bourinet, Montpellier, France) expressing CaV3.1 were cultured under 5% carbon dioxide at 37 °C in Alpha Minimum Essential Media (MEM) Glutamax (Gibco, Life Technologies), supplemented with 10% (v/v) fetal bovine serum (FBS) and 300 μg/mL geneticin (G418) (Gibco, Life Technologies). The human neuroblastoma SH-SY5 Y cells (Victor Diaz, Goettingen, Germany) were cultured under 5% carbon dioxide at 37 °C in RPMI 1640 antibiotic-free medium (Invitrogen, Carlsbad, CA, USA), supplemented with 15% FBS and 2 mM GlutaMAX™ (Invitrogen). D-PBS (Gibco, Life Technologies) was used to wash the cells, and 0.25% Trypsin-EDTA (Gibco, Life Technologies) was used to detach cells from the flask surface. They were split in a ratio of 1:5 (ideally 1000 cells/cm^2) when they reached 70%–80% confluence (every 2–3 days). Transiently transfected CaV3.1HEK293 T cells were used in FLIPR Assays. HEK 293 T cells were cultured under 5% carbon dioxide at 37 °C in DMEM supplemented with 10% (v/v) FBS. D-PBS was used to wash the cells, and 0.25% Trypsin-EDTA was used to detach cells from the flask surface. The cells were split and seeded at 6 million cells per T175 flask, to reach 70%–80% confluence after 24 h. The next day, 12 μg DNA of human CaV3.1 was incubated in 900 μL serum-free DMEM with 36 μL FuGENE HD transfection reagent (Promega Corporation, Madison, WI, US) (1:3 DNA/Fugene ratio) for 20 min, and then the mixture was added into the cell flask slowly, drop by drop. After the transfection, the cells were cultured under 5% carbon dioxide at 37 °C for 24 h and then moved to a 28 °C incubator.
(§2) HEK 293 cells stably expressing CaV3.2 or CaV3.3 were seeded into 384-well black wall clear bottom plates (Corning, Lowell, MA, USA) at a density of 30,000 cells per well. Transiently transfected CaV3.1HEK293 T cells were seeded into 384-well black wall clear bottom plates at a density of 60,000 cells per well. Once the cells reached 90%–95% confluence after 24 h, the media were removed from the wells and replaced with 20 μL of 10% calcium 4 dye (Molecular Devices, Sunnyvale, CA, USA) in HBSS-HEPES (containing 5 mM KCl, 10 mM HEPES, 140 mM NaCl, 10 mM glucose, and 0.5 mM CaCl2, pH 7.4) with 0.1% bovine serum albumin (BSA). The cells were incubated for 30 min at 37 °C in the presence of 5% carbon dioxide. Each well on the reagent plates for the first addition contained 15 μL different concentrations of compounds dissolved in HBSS-HEPES containing 0.1% BSA and <0.1% DMSO and was incubated for 20 min after loading. Positive and negative controls contained 15 μL of HBSS-HEPES (0.1% BSA) alone. The plates were placed in the FLIPR^TETRA (Molecular Devices, Sunnyvale, CA, USA) programmed to measure maximum fluorescence intensity following a second addition of the agonist 5 mM CaCl2. The data acquisition parameters were adjusted as follows: Baseline fluorescence of 1500–2000 arbitrary fluorescence units (AFU), emission wavelength of 515–575 nm, and excitation wavelength of 470–495 nm. HBSS-HEPES (0.1% BSA) was used in the second addition as a negative control. One fluorescence reading was taken before the second addition. Then the fluorescence readings were recorded every two seconds for 300 s. Raw fluorescence readings in the form of relative light units were converted to response over baseline using ScreenWorks® (Molecular Devices, version 3.2.0.14) software.
(§3) Data were plotted and analyzed using GraphPad Prism v7.0 (GraphPad Software Inc., San Diego, CA, USA).

[2] = target: CaV3.2 (Homo sapiens, UniProt O95180); assay: T-type calcium channel window current FLIPR assay, CaV3.2; type: cell-based; details: FLIPR window current assay, HEK 293 stable, N = 3, mean ± SEM; read-out: IC50 CaV3.2 (LVA CaVs)
Experimental: as §1, §2, §3

[3] = target: CaV3.3 (Homo sapiens, UniProt Q9P0X4); assay: T-type calcium channel window current FLIPR assay, CaV3.3; type: cell-based; details: for IC50: FLIPR window current assay, HEK 293 stable, N = 3, mean ± SEM, read-out: IC50 CaV3.3 (LVA CaVs)
Experimental: as §1, §2, §3

[4] = target: T2, N-type CaV2.2 (Homo sapiens, UniProt Q00975); assay: HVA calcium channel FLIPR assay, N-type (SH-SY5Y cells); type: cell-based; details: for IC50: 10 µM nifedipine present, N = 3, mean ± SEM, read-out: IC50 CaV2.2 (HVA CaVs)
T2 construct: endogenous in cells
T2 sequence (Q00975 whole entry): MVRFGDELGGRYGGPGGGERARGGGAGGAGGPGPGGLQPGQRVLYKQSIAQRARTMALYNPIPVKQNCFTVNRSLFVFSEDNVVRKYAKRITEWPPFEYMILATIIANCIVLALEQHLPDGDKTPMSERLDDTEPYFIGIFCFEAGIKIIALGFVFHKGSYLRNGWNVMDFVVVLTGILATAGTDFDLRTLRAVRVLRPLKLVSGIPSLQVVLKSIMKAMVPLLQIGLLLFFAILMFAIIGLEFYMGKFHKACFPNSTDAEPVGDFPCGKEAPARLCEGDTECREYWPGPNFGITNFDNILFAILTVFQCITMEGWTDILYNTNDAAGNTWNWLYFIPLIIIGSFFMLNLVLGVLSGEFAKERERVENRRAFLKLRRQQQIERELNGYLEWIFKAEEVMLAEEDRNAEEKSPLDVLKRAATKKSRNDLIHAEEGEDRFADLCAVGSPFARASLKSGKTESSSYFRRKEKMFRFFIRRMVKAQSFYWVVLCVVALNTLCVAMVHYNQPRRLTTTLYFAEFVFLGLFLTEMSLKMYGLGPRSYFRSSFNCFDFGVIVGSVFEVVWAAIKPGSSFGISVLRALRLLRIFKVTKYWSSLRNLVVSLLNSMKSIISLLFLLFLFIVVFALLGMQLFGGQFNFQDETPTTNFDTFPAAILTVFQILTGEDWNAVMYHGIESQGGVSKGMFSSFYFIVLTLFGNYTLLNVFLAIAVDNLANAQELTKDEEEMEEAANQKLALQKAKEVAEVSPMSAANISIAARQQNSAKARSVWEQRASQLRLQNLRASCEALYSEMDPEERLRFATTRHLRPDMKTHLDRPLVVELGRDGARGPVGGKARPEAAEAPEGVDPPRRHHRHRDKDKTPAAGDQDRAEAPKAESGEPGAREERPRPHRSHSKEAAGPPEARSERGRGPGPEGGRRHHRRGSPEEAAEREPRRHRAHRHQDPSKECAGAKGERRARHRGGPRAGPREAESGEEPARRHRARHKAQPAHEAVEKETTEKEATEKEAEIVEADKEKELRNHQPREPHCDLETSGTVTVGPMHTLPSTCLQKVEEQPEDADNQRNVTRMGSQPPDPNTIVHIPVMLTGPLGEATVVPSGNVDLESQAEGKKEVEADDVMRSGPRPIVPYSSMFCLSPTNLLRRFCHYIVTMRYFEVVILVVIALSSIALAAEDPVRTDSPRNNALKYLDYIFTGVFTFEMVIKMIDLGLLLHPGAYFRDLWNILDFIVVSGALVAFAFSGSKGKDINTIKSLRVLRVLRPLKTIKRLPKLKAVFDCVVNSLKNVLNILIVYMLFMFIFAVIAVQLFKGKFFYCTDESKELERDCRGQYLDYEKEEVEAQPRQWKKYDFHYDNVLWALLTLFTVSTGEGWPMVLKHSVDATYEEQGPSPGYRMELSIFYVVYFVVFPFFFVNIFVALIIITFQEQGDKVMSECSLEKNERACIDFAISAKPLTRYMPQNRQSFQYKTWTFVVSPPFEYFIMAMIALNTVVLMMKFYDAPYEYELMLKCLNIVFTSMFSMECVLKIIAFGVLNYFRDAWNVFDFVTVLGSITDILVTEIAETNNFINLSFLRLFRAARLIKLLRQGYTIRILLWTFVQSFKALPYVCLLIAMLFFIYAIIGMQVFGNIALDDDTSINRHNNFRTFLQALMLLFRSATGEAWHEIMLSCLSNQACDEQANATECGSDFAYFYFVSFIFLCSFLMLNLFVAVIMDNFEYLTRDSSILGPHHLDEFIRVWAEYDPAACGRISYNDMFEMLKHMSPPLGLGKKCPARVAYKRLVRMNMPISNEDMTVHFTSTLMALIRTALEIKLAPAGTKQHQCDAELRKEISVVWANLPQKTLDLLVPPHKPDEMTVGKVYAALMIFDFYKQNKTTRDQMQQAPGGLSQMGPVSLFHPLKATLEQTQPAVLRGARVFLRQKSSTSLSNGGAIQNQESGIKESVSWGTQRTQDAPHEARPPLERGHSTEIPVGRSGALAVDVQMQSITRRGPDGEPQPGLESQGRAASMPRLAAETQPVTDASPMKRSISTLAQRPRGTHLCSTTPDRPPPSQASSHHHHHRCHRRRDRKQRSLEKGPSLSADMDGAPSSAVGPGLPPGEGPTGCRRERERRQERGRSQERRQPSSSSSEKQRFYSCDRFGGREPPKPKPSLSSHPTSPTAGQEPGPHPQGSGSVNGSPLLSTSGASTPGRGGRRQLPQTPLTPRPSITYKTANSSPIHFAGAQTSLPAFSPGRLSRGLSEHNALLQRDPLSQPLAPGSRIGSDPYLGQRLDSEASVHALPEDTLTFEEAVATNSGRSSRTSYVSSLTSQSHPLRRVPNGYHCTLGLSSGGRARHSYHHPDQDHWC
T2 sequence (P54284 whole entry partner): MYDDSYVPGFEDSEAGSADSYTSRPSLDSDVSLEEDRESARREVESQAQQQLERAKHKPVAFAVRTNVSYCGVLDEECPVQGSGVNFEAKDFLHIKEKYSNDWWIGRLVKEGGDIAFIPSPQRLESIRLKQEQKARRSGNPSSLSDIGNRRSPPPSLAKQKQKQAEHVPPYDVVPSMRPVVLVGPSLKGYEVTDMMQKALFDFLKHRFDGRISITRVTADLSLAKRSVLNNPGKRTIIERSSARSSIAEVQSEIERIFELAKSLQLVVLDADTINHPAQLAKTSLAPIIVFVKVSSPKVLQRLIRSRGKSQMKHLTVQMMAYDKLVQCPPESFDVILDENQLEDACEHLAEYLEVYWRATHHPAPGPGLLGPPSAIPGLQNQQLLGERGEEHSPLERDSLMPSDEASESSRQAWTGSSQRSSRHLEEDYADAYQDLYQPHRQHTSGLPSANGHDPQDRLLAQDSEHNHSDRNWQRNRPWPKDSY
T2 sequence (P54289 25-946 partner limits assumed): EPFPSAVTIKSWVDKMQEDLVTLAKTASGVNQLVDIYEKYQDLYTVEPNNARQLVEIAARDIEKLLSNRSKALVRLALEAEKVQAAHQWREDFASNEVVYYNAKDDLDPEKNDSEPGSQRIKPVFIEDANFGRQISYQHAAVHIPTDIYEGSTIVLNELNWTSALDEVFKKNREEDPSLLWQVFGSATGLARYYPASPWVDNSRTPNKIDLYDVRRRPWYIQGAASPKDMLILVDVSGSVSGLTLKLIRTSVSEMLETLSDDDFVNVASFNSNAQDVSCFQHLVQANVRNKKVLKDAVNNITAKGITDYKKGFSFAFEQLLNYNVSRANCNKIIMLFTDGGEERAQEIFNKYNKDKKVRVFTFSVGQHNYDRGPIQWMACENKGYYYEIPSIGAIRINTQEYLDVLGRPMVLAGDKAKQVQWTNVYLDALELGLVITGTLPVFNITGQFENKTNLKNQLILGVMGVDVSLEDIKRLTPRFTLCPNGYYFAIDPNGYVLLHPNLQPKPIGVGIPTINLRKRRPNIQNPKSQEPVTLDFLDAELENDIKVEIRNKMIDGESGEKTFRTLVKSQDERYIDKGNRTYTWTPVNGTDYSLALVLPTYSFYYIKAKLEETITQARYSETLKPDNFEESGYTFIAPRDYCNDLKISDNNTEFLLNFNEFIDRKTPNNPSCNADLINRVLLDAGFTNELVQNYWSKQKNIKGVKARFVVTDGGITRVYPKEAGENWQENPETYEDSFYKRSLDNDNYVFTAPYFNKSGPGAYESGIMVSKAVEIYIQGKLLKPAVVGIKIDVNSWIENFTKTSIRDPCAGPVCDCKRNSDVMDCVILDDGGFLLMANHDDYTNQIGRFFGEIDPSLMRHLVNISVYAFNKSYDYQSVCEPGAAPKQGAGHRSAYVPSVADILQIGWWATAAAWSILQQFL
T2 sequence (P54289 947-1103 partner limits assumed): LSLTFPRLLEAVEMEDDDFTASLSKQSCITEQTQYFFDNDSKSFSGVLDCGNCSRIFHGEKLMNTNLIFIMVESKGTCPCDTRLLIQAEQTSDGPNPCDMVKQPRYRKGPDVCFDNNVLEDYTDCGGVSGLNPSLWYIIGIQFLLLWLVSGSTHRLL
Experimental: as §1
SH-SY5Y cells were seeded into 384-well black wall clear bottom plates at a density of 15,000 cells per well, resulting in 90%–95% confluence after 24 h. The media were then removed from the wells and replaced with 20 μL of 10% calcium 4 dye (Molecular Devices) in physiological salt solution (PSS) (containing 5.9 mM KCl, 1.4 mM MgCl2, 10 mM HEPES, 1.2 mM NaH2 PO4, 5 mM NaHCO3, 140 mM NaCl, 11.5 mM glucose, and 1.8 mM CaCl2, pH 7.4) with 0.1% BSA. […] Positive control on the first reagent plate contained 15 μL of PSS (0.1% BSA), whereas PSS (0.1% BSA) containing 1 µM CVID and 10 µM nifedipine (final concentration) was used as a negative control. The fluorescence readings were recorded and converted as described previously, and agonist containing 90 mM KCl + 5 mM CaCl2 was used in the second addition.
Data were plotted and analyzed using GraphPad Prism v7.0 (GraphPad Software Inc., San Diego, CA, USA). A four-parameter logistic Hill equation with variable Hill coefficients was fitted to the data for concentration-response curves. Data are means ± SEM of n independent experiments. Statistical analysis was performed with a paired Student’s t-test with statistical significance at p < 0.05.

[5] = test system: L-type calcium channel (CaV1); assay: HVA calcium channel FLIPR assay, L-type (SH-SY5Y cells); type: cell-based, human; details: 1 µM CVID present, N = 3, mean ± SEM, read-out: IC50 CaV1 (HVA CaVs)
Experimental: as §1
SH-SY5Y cells were seeded into 384-well black wall clear bottom plates at a density of 15,000 cells per well, resulting in 90%–95% confluence after 24 h. […] The fluorescence readings were recorded and converted as described previously, and agonist containing 90 mM KCl + 5 mM CaCl2 was used in the second addition.
Data were plotted and analyzed using GraphPad Prism v7.0 (GraphPad Software Inc., San Diego, CA, USA). […]

[6] = test system: voltage-gated calcium channels (VGCCs); assay: FLIPR cell-based assays on VGCCs (overall statement); design: species or system human; details: all VGCC FLIPR assays (CaV3.1, CaV3.2, CaV3.3, CaV2.2, CaV1)
Experimental: as §2

[7] = test system: T-type calcium channel (CaV3.x); design: method as in PMID 22344687, PMID 19582593; details: activated current generated from the channel-closed state; cited from earlier work

| Structure (SMILES) | Kind of block of CaV3.1, in words ([1]; FLIPR) | IC50 [1] | Emax ([1]; FLIPR, n = 3, read-out: Emax, inhibition for CaV3.1) | IC50 [2] | Further reduced potency for CaV3.3 compared to 2 ([3]; FLIPR) | IC50 [3] | Kind of block of CaV2.2, in words [4] | IC50 ([4]; SH-SY5Y) | Emax ([4]; SH-SY5Y, n = 3, read-out: Emax, inhibition for N-type CaV2.2) | IC50 [5] | Inhibition of Ca2+ responses, in words [6] | Potency for T-type window currents versus activated current, in words [7] |
| --- | --- | --- | --- | --- | --- | --- | --- | --- | --- | --- | --- | --- |
| CNC(=O)C(NC(=O)C(C)(c1c[nH]c2ccccc12)c1c[nH]c2ccccc12)C(=O)c1c[nH]c2ccccc12 (stereo not drawn) [Compound 1, Pseudellone C] | partial blocking | 53.5 ± 2.72 µM | 63.6% | 44 ± 1.6 µM | > 3 fold | 26.6 ± 1.23 µM | partial blocking | 82.5 ± 7.6 µM | 39.3% | 322 ± 21.6 µM | weak calcium channel blocker | – |
| CC(C(=O)N[C@@H](Cc1c[nH]c2ccccc12)C(=O)O)(c1c[nH]c2ccccc12)c1c[nH]c2ccccc12 [Compound 3a, (2,2-di(1H-indol-3-yl)propanoyl)-L-tryptophan] | – | 122 ± 5.96 µM | – | 80.7 ± 6.21 µM | – | 90.1 ± 4.99 µM | – | 147 ± 1.72 µM | – | 132 ± 1.63 µM | poor inhibition | – |
| CC(C(=O)O)(c1c[nH]c2ccccc12)c1c[nH]c2ccccc12 [Compound 4, 2,2-di(1H-indol-3-yl)propanoic Acid] | – | 72.28 ± 0.41 µM | – | 132 ± 6.13 µM | – | 119 ± 8.66 µM | – | 179 ± 19.7 µM | – | 264 ± 11.9 µM | poor inhibition | – |
| CC(C)(C)NC(=O)CN1CCC(CNC(=O)c2cc(F)cc(Cl)c2)CC1 [Compound Z944] | – | – | – | – | – | – | – | – | – | – | – | better potency for T-type window currents than the activated current |
| C[C@@H](NC(=O)Cc1ccc(C2CC2)cc1)c1ccc(OCC(F)(F)F)cn1 [TTA-A2] | – | – | – | – | – | – | – | – | – | – | – | better potency for T-type window currents than the activated current |
| O=c1[nH]c2ccccc2n1C1CCN(CCCC(c2ccc(F)cc2)c2ccc(F)cc2)CC1 [pimozide, reference compound] | – | – | – | 4.2 ± 1.06 µM | – | 7.71 ± 0.7 µM | – | – | – | – | – | – |
